Test results reported in patent publication US20260166076A1, “PHARMACEUTICAL COMPOSITION CONTAINING ZINC POLYPHOSPHATE” (Kamui Pharma, Inc., priority 2022, published 2026).
Marks after values point to notes of the source that are not given here.

Experiments:
[1] = test system: DSS acute enteritis model; assay: DSS acute enteritis model (Example 10, after long-term storage): intestinal length and histopathological evaluation; format: in vivo; settings: DSS mice, day 12; PPA-Zn initial (not stored) or TAC
Experimental: (§1) Mice were euthanized by cervical dislocation under isoflurane anesthesia, and the entire length of the colon was excised after opening the abdomen with scissors. The length of the excised colon was measured on a scale (FIG. 5).
(§2) Each colon tissue was Swiss rolled (Moolenbeek C, Lab Anim. 1981) and fixed in 10% formalin according to the procedure instructed by Moolenbeek C et al. The tissue was paraffin-embedded, thinly sliced to 4 μm, and stained with hematoxylin & eosin as a prepared specimen. The tissue was pathologically evaluated by inflammatory tissue scoring (Berg DJ, J Clin Invest, 1996) as described by Berg et al. The improvement rate (%) was calculated according to the following formula (Table 4).
(§3) Zinc polyphosphate Test 15-2 was stored under a condition at 60° C. and 75% RH for 8 weeks according to Example 2. The zinc polyphosphate Test 15-2 after storage was used to evaluate efficacy in the DSS acute enteritis model, measure the intestinal length, perform RT-PCR, and evaluate the histopathological severity according to Example 6 (Table 7, FIG. 9).
(§4) DDS acute enteritis model mice were generated according to Example 6 and subjected to various tests on day 12 (FIG. 9).
The intestinal length after zinc polyphosphate treatment was measured according to Example 6, and the improvement rate was calculated (FIG. 9).
Each tissue was pathologically evaluated by inflammatory tissue scoring according to Example 6, and the improvement rate was calculated (Table 7).

[2] = test system: inflammatory cytokines (TNFα, IL1β, IL6, IFNγ); assay: DSS acute enteritis model (Example 6): RT-PCR of inflammatory cytokines in intestinal mucosa; format: in vivo, BALB/c mice; settings: polyphosphate 5 μg/head or TAC 60 μg/head oral daily day 0-7, day 8
Experimental: (§5) Dextran sodium sulfate (DSS) (MP-BioMedicals; 160110) was dissolved in distilled water to prepare 2% DSS solution. Chemical-induced enteritis was triggered in BALB/c mice (Charles River, Japan) by administering the solution as drinking water ad libitum for 5 days, and acute enteritis was developed while distilled water was supplied as drinking water ad libitum from day 6 to day 8 (necropsy day). Each polyphosphate (PPA-Na, PPA-Ca, PPA-Zn, or PPA-Mg; 5 μg/head each) or tacrolimus (TAC; 60 μg/head; Sigma CORPORATION, PHR1809) was orally administered daily from day 0 to day 7, and on day 8, the mice were subjected to various tests.
(§6) The colon was cut and open in half using scissors, and the intestinal mucosa was detached with a slide glass. Intestinal mucosal tissue was soaked in 0.5 ml TRIzol (ThermoFisher Scientific K.K.), frozen in liquid nitrogen, and stored at −80° C. After thawing each stored sample at room temperature, RNA was recovered according to the procedure instructed by ThermoFisher Scientific K.K. The recovered total RNA was purified using an RNeasy Mini kit (Qiagen) and reverse-transcribed using a High-Capacity cDNA Reverse Transcription Kit (ThermoFisher Scientific K.K.). A PCR reaction was performed, using the recovered cDNA as a template, with EagleTaq Universal Master Mix with ROX (Roche). The primers (TaqMan Gene Expression Assays; ThermoFisher Scientific K.K.) used in the reaction are as follows. IL1β: Mm01336189, TNFα: Mm00443258, IL6: Mn00446190, IFNγ: Mm99999071. Changes in each gene expression level were standardized based on the expression level of Eukaryotic 18S rRNA Endogenous Control (ThermoFisher Scientific K.K.). Spectrum data was acquired using the Applied Biosystems 7300 Real Time PCR system.

[3] = test system: inflammatory cytokines (IL1β, TNFα, IL6, IFNγ, IL17A); assay: DSS acute enteritis model (Example 9, dose examination): RT-PCR of cytokine mRNA; format: in vivo, BALB/c mice; settings: 20 μg/head oral daily day 5-11, day 12
Experimental: as §6
(§7) Dextran sodium sulfate (DSS) (MP-BioMedicals; 160110) was dissolved in distilled water to prepare 2% DSS solution. Chemical-induced enteritis was triggered in BALB/c mice (Charles River, Japan) by administering the solution as drinking water ad libitum for 5 days, and acute enteritis was developed while distilled water was supplied as drinking water ad libitum from day 5 to day 12 (necropsy day). Zinc polyphosphate PPA-Zn (1, 5, 20, or 50 μg/head each) or tacrolimus (20 μg/head) was orally administered daily from day 5 to day 11, and on day 12, the mice were subjected to various tests (FIG. 8).
The mRNA expression levels of various cytokines (IL1β, TNFα, IL6, IFNγ, and IL17A) were analyzed according to Example 6, and the improvement rate was calculated (Table 6). The primers (TaqMan Gene Expression Assays; ThermoFisher Scientific K.K.) used in the reaction are as follows. IL1β: Mm01336189, TNFα: Mm00443258, IL6: Mn00446190, IFNγ: Mm99999071, IL17A: Mm00439618.

[4] = test system: DSS acute enteritis model; assay: DSS acute enteritis model (Example 9, dose examination): intestinal length and histopathological evaluation; format: in vivo, BALB/c mice; settings: DSS mice; 20 μg/head oral daily day 5-11; day 12
Experimental: as §1, §2, §7
The intestinal length after zinc polyphosphate treatment was measured according to Example 6, and the improvement rate was calculated (FIG. 8).
Each tissue was pathologically evaluated by inflammatory tissue scoring according to Example 6, and the improvement rate was calculated (Table 6).

[5] = test system: DSS acute enteritis model; assay: DSS acute enteritis model (Example 6): intestinal length and histopathological evaluation; format: in vivo, BALB/c mice; settings: DSS mice; polyphosphate 5 μg/head or TAC 60 μg/head oral daily day 0-7; day 8
Experimental: as §5, §1, §2

[6] = test system: inflammatory cytokines (IL1β, TNFα, IL6, IFNγ, IL17A); assay: DSS acute enteritis model (Example 10, after long-term storage): RT-PCR of cytokine mRNA; format: in vivo, mice; settings: day 12, PPA-Zn initial (not stored) or TAC
Experimental: as §6, §3, §4
The mRNA expression levels of various cytokines (IL1β, TNFα, IL6, IFNγ, and IL17A) were analyzed according to Example 6, and the improvement rate was calculated (Table 7). The primers (TaqMan Gene Expression Assays; ThermoFisher Scientific K.K.) used in the reaction are as follows. IL1β: Mm01336189, TNFα: Mm00443258, IL6: Mn00446190, IFNγ: Mm99999071, IL17A: Mm00439618.

[7] = relative value when control is set to 1

With `C=CC[C@@H]1/C=C(\C)C[C@H](C)C[C@H](OC)[C@H]2O[C@@](O)(C(=O)C(=O)N3CCCC[C@H]3C(=O)O[C@H](/C(C)=C/[C@@H]3CC[C@@H](O)[C@H](OC)C3)[C@H](C)[C@@H](O)CC1=O)[C@H](C)C[C@@H]2OC` [TAC, tacrolimus] the “Improvement rate Histological severity” value [1] was 42%, the “Improvement rate Intestinal length” value [1] was 12% and the “Macro findings Intestinal length” value [1] was 89 ± 4.5 mm. For the same compound, the “Micro findings Histological severity” value [1] was 2.3 ± 0.5, the “Improvement rate IFNγ” value ([2]; DSS mice) was 98% and the “Improvement rate IL1β” value ([2]; DSS mice) was 88% *. The “Improvement rate IL6” value ([2]; DSS mice) was 94%, the “Improvement rate TNFα” value ([2]; DSS mice) was 85% * and the “Changes in inflammatory cytokines IFNγ” value [2, 7] was 2 ± 0.9. For the same compound, the “Changes in inflammatory cytokines IL1β” value [2, 7] was 6.7 ± 6.3, the “Changes in inflammatory cytokines IL6” value [2, 7] was 5.1 ± 2.3 and the “Changes in inflammatory cytokines TNFα” value [2, 7] was 2.2 ± 0.5. For the same compound, the “Improvement rate IFNγ” value ([3]; DSS mice) was 63%, the “Improvement rate IL1β” value ([3]; DSS mice) was 31% and the “Improvement rate IL6” value ([3]; DSS mice) was 73%. The “Improvement rate IL17A” value ([3]; DSS mice) was 66%, the “Improvement rate TNFα” value ([3]; DSS mice) was 39% and the “Changes in inflammatory cytokines IFNγ” value [3, 7] was 1.5 ± 0.8. For the same compound, the “Changes in inflammatory cytokines IL1β” value [3, 7] was 85.9 ± 117.1, the “Changes in inflammatory cytokines IL6” value [3, 7] was 27.2 ± 52.4 and the “Changes in inflammatory cytokines IL17A” value [3, 7] was 53.9 ± 77. For the same compound, the “Changes in inflammatory cytokines TNFα” value [3, 7] was 5.4 ± 4.5, the “Improvement rate Histological severity” value [4] was 27% and the “Improvement rate Intestinal length” value [4] was 9%. For the same compound, the “Macro findings Intestinal length” value [4] was 99.4 ± 12.6 mm, the “Micro findings Histological sovority” value [4] was 2.4 ± 1.3 and the “Improvement rate Histological severity” value [5] was 40% *. The “Improvement rate Intestinal length” value [5] was 43% *, the “Macro findings Intestinal length” value [5] was 109.8 ± 6.5 mm and the “Micro findings Histological severity” value [5] was 1.8 ± 0.4. The “Improvement rate IFNγ” value ([6]; DSS mice) was 79%, the “Improvement rate IL1β” value ([6]; DSS mice) was 44% and the “Improvement rate IL6” value ([6]; DSS mice) was 76%. The “Improvement rate IL17A” value ([6]; DSS mice) was 80%, the “Improvement rate TNFα” value ([6]; DSS mice) was 50% and the “Changes in inflammatory cytokines IFNγ” value [6, 7] was 12.1 ± 27.7. The “Changes in inflammatory cytokines IL1β” value [6, 7] was 201.1 ± 211.7, the “Changes in inflammatory cytokines IL6” value [6, 7] was 49.5 ± 55.5 and the “Changes in inflammatory cytokines IL17A” value [6, 7] was 192.9 ± 321.9. For the same compound, the “Changes in inflammatory cytokines TNFα” value [6, 7] was 8.2 ± 5.
